Source: paper PMC12104861, “Structural and mechanistic basis for the regulation of the chloroplast signal recognition particle by (p)ppGpp” (Febs Letters, 2025)
Blank lines part the entries; values can stand above or below the molecule they belong to.

Experiments:
[1] = molecular target: T1, (cp)FtsY‐NG (Arabidopsis thaliana, UniProt O80842); assay: isothermal titration calorimetry; format: binding
T1 construct: gene CPFTSY
T1 sequence (O80842 65-366): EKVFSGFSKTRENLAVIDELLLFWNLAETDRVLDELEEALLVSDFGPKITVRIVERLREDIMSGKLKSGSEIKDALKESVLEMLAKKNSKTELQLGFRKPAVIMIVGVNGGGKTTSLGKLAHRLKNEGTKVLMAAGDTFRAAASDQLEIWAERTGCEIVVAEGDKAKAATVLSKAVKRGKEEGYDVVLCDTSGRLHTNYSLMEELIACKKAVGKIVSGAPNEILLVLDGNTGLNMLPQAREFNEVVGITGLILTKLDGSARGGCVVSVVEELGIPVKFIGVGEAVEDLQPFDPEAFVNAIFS
Source text: isothermal titration calorimetry on (cp)FtsY‐NG

[2] = molecular target: T2, (cp)SRP54 (Arabidopsis thaliana, UniProt P37107); assay: isothermal titration calorimetry; format: binding
T2 construct: gene FFC; residues 79-564 (transit peptide removed), NG and M domains, hexa-histidine tag kept, expressed in E. coli BL21(DE3) Rosetta
T2 sequence (P37107 79-564): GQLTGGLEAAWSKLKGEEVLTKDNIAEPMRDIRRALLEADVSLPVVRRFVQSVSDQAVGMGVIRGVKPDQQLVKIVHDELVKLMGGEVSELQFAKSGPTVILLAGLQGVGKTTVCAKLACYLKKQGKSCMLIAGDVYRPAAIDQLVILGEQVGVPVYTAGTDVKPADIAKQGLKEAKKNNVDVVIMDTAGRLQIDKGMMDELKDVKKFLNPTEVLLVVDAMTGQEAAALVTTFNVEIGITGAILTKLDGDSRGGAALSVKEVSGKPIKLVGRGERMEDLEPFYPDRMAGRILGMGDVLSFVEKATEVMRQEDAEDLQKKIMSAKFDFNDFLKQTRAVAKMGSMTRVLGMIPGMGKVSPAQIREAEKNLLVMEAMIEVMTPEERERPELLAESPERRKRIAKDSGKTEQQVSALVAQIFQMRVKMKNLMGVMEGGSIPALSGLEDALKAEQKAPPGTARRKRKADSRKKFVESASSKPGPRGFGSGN
Source text: isothermal titration calorimetry on (cp)SRP54

[3] = molecular target: T3, (cp)SRP54:FtsY‐NG complex (Arabidopsis thaliana, UniProt O80842+P37107); assay: HPLC GTP hydrolysis assay; format: biochemical; conditions: 10 μM each protein, 500 μM GTP, pH 7.5, 10 mM Mg(OAc)2, 37 °C
T3 construct: gene FFC; GTPase heterodimer mixed from the two His-tagged proteins: SRP54 residues 79-564 and FtsY NG domain residues 65-366
T3 sequence (P37107 79-564): T2 sequence (P37107 79-564)
T3 sequence (O80842 65-366): T1 sequence (O80842 65-366)

[4] = molecular target: T1, (cp)FtsY‐NG; assay: X-ray crystal structure, […] Å; conditions: Mg2+; canonical guanosine nucleotide-binding site; 100 mM Tris pH 8.5, 25% PEG1000
[5] = molecular target: T3, (cp)SRP54:FtsY‐NG complex; assay: HPLC GTP hydrolysis assay; format: biochemical; conditions: read-out: residual GTPase activity (% GTP hydrolysed) at 10 mM, 30 min
[6] = molecular target: T3, (cp)SRP54:FtsY‐NG complex; assay: analytical size-exclusion chromatography of complex formation; format: binding; conditions: nonhydrolysable GTP analogue promotes the heterodimer; 20 mM HEPES-K pH 7.5, 20 mM MgCl2
[7] = molecular target: T4, chloroplast signal recognition particle 54 kDa protein, (cp)SRP54 (Arabidopsis thaliana, UniProt P37107 79-564); assay: SEC; analytical SEC, Superdex 200 Increase 10/300 GL; 100 uM of each protein in buffer C (20 mM HEPES-K pH 7.5, 200 mM NaCl, 20 mM KCl, 20 mM MgCl2) with increasing GppNHp; 30 min at room temperature; also 0.5 mM GppNHp with increasing ppGpp or pppGpp, which disrupt the complex; conditions: both partners purified
T4 construct: Arabidopsis thaliana (cp)SRP54, UniProt P37107, residues 79-564; the methods give residues 79-564; source: E. coli BL21 (DE3) Rosetta, purified (HisTrap FF, EDTA incubation, SEC Superdex 200)
T4 sequence (looked up): T2 sequence (P37107 79-564)

Molecule: Nc1nc2c(ncn2[C@@H]2O[C@H](COP(=O)(O)OP(=O)(O)OP(=O)(O)O)[C@@H](O)[C@H]2O)c(=O)[nH]1 [GTP]
Kd [1]: 11.9 ± 2.44 µM
Kd [2]: 51.8 ± 3.54 µM
HPLC GTP hydrolysis assay [3]: significantly enhanced when in complex, hydrolysing nearly all available GTP

Molecule: Nc1nc2c(ncn2[C@@H]2O[C@H](COP(=O)(O)OP(=O)(O)NP(=O)(O)O)[C@@H](O)[C@H]2O)c(=O)[nH]1 [GppNHp]
analytical size-exclusion chromatography of complex formation [6]: visualized the complex between (cp)SRP54 and (cp)FtsY‐NG at increasing concentrations of GppNHp

Molecule: Nc1nc2c(ncn2[C@@H]2O[C@H](COP(=O)(O)OP(=O)(O)O)[C@@H](O)[C@H]2O)c(=O)[nH]1 [GDP]
Kd [1]: 7.71 ± 0.4 µM
Kd [2]: 23.5 ± 2.29 µM

B1: NG domain of the chloroplast SRP receptor (cp)FtsY, (cp)FtsY-NG (domain or fragment, Arabidopsis thaliana, UniProt O80842 65-366, looked up)
chain: T1 sequence (O80842 65-366)
notes: source: E. coli BL21 (DE3) Rosetta, purified (HisTrap FF, EDTA incubation, SEC Superdex 200)
binding result [7]: binds

The next lines start with results.

Kd [1]: 7.36 ± 1.46 µM
Kd [2]: 32.5 ± 5.38 µM
remaining activity at 10000 µM [5]: ~20%
Molecule: Nc1nc2c(ncn2[C@@H]2O[C@H](COP(=O)(O)OP(=O)(O)O)[C@@H](OP(=O)(O)OP(=O)(O)O)[C@H]2O)c(=O)[nH]1 [ppGpp]
X-ray crystal structure, 1.99 Å [4]: solve the crystal structure of the truncated form of (cp)FtsY from A. thaliana

Kd [1]: 27.6 ± 3.64 µM
Kd [2]: 47.8 ± 3.52 µM
remaining activity at 10000 µM [5]: ~20%
Molecule: Nc1nc2c(ncn2[C@@H]2O[C@H](COP(=O)(O)OP(=O)(O)OP(=O)(O)O)[C@@H](OP(=O)(O)OP(=O)(O)O)[C@H]2O)c(=O)[nH]1 [pppGpp]
